Reference: patent US12479840B2, “HMG-CoA reductase degradation inducing compound” (Uppthera, priority 2020, dated 2025)

What follows are molecules tested against T1, HMG-CoA reductase (Homo sapiens, UniProt P04035) (assay: HMG-CoA reductase (HMGCR) degradation in HepG2 cells by western blotting). Conditions: treated for 18 hours, ratio of HMG-CoA reductase to GAPDH, read-out: DC50.
T1 construct: endogenous in cells; host or cells: HepG2 (Korea Cell Line Bank)
T1 sequence (P04035 1-888): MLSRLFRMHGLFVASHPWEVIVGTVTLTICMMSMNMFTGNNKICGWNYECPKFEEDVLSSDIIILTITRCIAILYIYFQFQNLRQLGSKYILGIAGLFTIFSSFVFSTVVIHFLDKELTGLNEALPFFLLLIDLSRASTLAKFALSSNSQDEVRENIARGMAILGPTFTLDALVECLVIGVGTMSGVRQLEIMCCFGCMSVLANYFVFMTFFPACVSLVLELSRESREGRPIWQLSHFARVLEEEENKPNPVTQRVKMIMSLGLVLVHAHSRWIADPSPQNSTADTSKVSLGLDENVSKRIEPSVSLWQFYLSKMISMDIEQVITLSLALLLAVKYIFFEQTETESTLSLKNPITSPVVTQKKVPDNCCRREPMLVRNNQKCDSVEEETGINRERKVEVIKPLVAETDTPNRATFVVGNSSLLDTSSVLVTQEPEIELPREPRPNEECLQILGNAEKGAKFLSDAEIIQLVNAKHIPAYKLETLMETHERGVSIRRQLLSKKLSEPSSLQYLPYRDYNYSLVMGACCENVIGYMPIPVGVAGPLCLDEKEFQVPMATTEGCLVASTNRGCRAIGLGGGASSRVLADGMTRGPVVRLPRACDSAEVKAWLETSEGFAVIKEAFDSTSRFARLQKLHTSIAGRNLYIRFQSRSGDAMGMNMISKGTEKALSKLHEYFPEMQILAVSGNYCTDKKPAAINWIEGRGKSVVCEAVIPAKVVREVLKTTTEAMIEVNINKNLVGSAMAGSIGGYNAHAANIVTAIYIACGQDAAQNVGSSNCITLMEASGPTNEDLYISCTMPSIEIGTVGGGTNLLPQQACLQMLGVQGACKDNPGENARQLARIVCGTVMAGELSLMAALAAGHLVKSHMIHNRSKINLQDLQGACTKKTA
Format: cell-based
Protocol: HepG2, a human liver cancer cell line, was purchased from the Korea Cell Line Bank (KCLB), Seoul, Korea. The passage in cell culture was maintained at P105 to P110.
The compounds of the present invention were completely dissolved in DMSO and used in the experiment. 2×10^5 cells were seeded for each well of a 12-well plate (SPL), and the cells were cultured in the culture medium in a total volume of 2 ml. Each of the compounds of the present invention and comparative compounds was diluted three folds from the highest concentration of 3 μM to the lowest concentration in 10 points and treated for 18 hours.
Each of the compounds the present invention and comparative compounds was diluted three folds from the highest concentration of 3 μM to the lowest concentration of […] in 10 points and was treated for 18 hours.
For SDS-PAGE and Western blotting, 1×RIPA lysis buffer (Rockland, Cat. No. MB-030-0050; Lot no. 39751), 100× Protease Inhibitor Cocktail (Quartett, Cat. No. PPI1015; Lot no. PCO50038424), Pierce™ BCA protein assay kit (ThermoScientific, Cat. No. 23225; Lot no. UC276876), albumin standard (ThermoScientific, Cat. No. 23209; Lot no. UB269561), 4-15% Mini-PROTEAN TGX stain-free gel (Bio-rad, Cat. No. 4568085; Lot no. L007041B), 10× Tris/Glycine/SDS buffer (Bio-rad, Cat. No. 1610732; Lot no. 10000044375B); 10×TBS (Bio-rad, Cat. No. 1706435; Lot no. 1000045140B), 10% Tween 20 (Cat. No. 1610781; Lot no. L004152B), Color protein standard broad range (NEB, Cat. No. P7719S; Lot no. 10040349), 4× Laemmli sample buffer (Bio-rad, Cat. No. 1610747; Lot no. L004133B), β-mercaptoethanol (Sigma-Aldrich, Cat. No. M3148; Lot no. 60-24-2), SuperBlock™ T20 (TBS) blocking buffer (ThermoScientific, Cat. No. 37536; Lot no. UC282578), 1M sodium azide solution (Sigma-Aldrich, Cat. No. 08591-1 mL-F; Lot no. BCBV4989), α-Rabbit pAb to Ms IgG (abcam, Cat. No. ab97046; Lot no. GR3252115-1), α-Goat pAb to Rb IgG (CST, Cat. No. 7074S; Lot no. 28), α-GAPDH (abcam, Cat. No. ab8245), α-HMGCR (GeneTex, Cat. No. GTX54088; Lot no. 821903509), ECL™ Prime western blotting reagents (GE Healthcare, Cat. No. RPN2232; Lot no. 17001655), Ponceau S solution (Sigma-Aldrich, Cat. No. P7170; Lot no. SLBV4112), Difco™ Skim milk (BD, Cat. No. 232100; Lot no. 8346795), and iBlot® 2 NC Regular stacks (Invitrogen, Cat. No. IB23001; Lot no. 2NR110619-02), were used.
For cell harvesting, the cells were first separated from the plate using trypsin and then washed with the medium and PBS. Specifically, the medium was suctioned off and washed with 1 mL of PBS, and PBS was suctioned off. The cells were treated with 0.5 mL TrypLE™ Express at 37° C. for 7 minutes to separate the cells, and then 0.5 mL of complete medium was added to collect 1 mL of cell culture solution. Then, 1 mL of the cell collection solution was centrifuged at 8,000 rpm for 120 seconds, and the supernatant was removed. After washing with 0.2 mL of PBS, the PBS was removed.
For cell lysis, a lysis buffer was added and cell debris was removed to obtain a cell lysate. Specifically, the cells were treated with 70 μL of 1×RIPA buffer containing a protease inhibitor and incubated for 30 minutes on ice. Then, the cells were centrifuged at 4° C. and 15,000 rpm for 10 minutes to obtain a cell lysate.
Then, a standard curve was obtained using the BCA assay, and the protein mass in the lysate was quantified by substituting the curve. The mixture was incubated at 37° C. for 30 minutes using 20 μL of standard or sample solution, and 200 μL of BCA or Bradford solution, and measured at 562 nm absorbance. Samples were prepared by adding 4× sample buffer so that the quantity of protein added to each well was 15 μg.
Sodium dodecyl sulfate polyacrylamide gel electrophoresis (SDS-PAGE) was performed by setting a running time of 100 minutes at 120 V on a 4-15% Mini-PROTEAN TGX stain-free gel (15 well). Transferring was performed on iBlot® 2 NC Mini stacks at P0 mode of the dry blotting system. […]

`C[C@H]1C=C2C=C[C@H](C)[C@H](CC[C@@H]3C[C@@H](O)CC(=O)O3)[C@H]2[C@@H](OC(=O)NCCOCCNc2cccc3c2C(=O)N(C2CCC(=O)NC2=O)C3=O)C1` (stereo partly drawn) [Compound 87, (1S,3R,7S,8S,8aR)-8-(2-((2R,4R)-4-hydroxy-6-oxotetrahydro-2H-pyran-2-yl)ethyl)-3,7-dimethyl-1,2,3,7,8,8a-hexahydronaphthalen-1-yl (2-(2-((2-(2,6-dioxopiperidin-3-yl)-1,3-dioxoisoindolin-4-yl)amino)ethoxy)ethyl)carbamate] and `C[C@H]1C=C2C=C[C@H](C)[C@H](CC[C@@H]3C[C@@H](O)CC(=O)O3)[C@H]2[C@@H](OC(=O)NCCC(=O)NCCOCCNc2cccc3c2C(=O)N(C2CCC(=O)NC2=O)C3=O)C1` (stereo partly drawn) [Compound 101, (1S,3R,7S,8S,8aR)-8-(2-((2R,4R)-4-hydroxy-6-oxotetrahydro-2H-pyran-2-yl)ethyl)-3,7-dimethyl-1,2,3,7,8,8a-hexahydronaphthalen-1-yl (3-((2-(2-((2-(2,6-dioxopiperidin-3-yl)-1,3-dioxoisoindolin-4-yl)amino)ethoxy)ethyl)amino)-3-oxopropyl)carbamate] cannot be ordered by DC50: < 50 nM for the first, < 50 nM for the second.

First: C[C@H]1C=C2C=C[C@H](C)[C@H](CC[C@@H]3CC=CC(=O)O3)[C@H]2[C@@H](OC(=O)NCCOCCOCCNc2cccc3c2C(=O)N(C2CCC(=O)NC2=O)C3=O)C1 (stereo partly drawn) [Compound 153, (1S,3R,7S,8S,8aR)-3,7-dimethyl-8-(2-((R)-6-oxo-3,6-dihydro-2H-pyran-2-yl)ethyl)-1,2,3,7,8,8a-hexahydronaphthalen-1-yl (2-(2-(2-((2-(2,6-dioxopiperidin-3-yl)-1,3-dioxoisoindolin-4-yl)amino)ethoxy)ethoxy)ethyl)carbamate]
Second: C[C@H]1C=C2C=C[C@H](C)[C@H](CC[C@@H]3C[C@@H](O[Si](C)(C)C(C)(C)C)CC(=O)O3)[C@H]2[C@@H](OC(=O)NCCOCC(=O)NCC(=O)Nc2cccc3c2C(=O)N(C2CCC(=O)NC2=O)C3=O)C1 (stereo partly drawn) [Compound 144, (1S,3R,7S,8S,8aR)-8-(2-((2R,4R)-4-((tert-butyldimethylsilyl)oxy)-6-oxotetrahydro-2H-pyran-2-yl)ethyl)-3,7-dimethyl-1,2,3,7,8,8a-hexahydronaphthalen-1-yl (2-(2-((2-((2-(2,6-dioxopiperidin-3-yl)-1,3-dioxoisoindolin-4-yl)amino)-2-oxoethyl)amino)-2-oxoethoxy)ethyl)carbamate]
The DC50 of the first is lower: < 50 nM for the first, 50 to 500 nM for the second.

`C[C@H]1C=C2C=C[C@H](C)[C@H](CC[C@@H]3C[C@@H](O[Si](C)(C)C(C)(C)C)CC(=O)O3)[C@H]2[C@@H](OC(=O)NCc2ccc(OCCNc3cccc4c3C(=O)N(C3CCC(=O)NC3=O)C4=O)cc2)C1` (stereo partly drawn) [Compound 104, (1S,3R,7S,8S,8aR)-8-(2-((2R,4R)-4-((tert-butyldimethylsilyl)oxy)-6-oxotetrahydro-2H-pyran-2-yl)ethyl)-3,7-dimethyl-1,2,3,7,8,8a-hexahydronaphthalen-1-yl (4-(2-((2-(2,6-dioxopiperidin-3-yl)-1,3-dioxoisoindolin-4-yl)amino)ethoxy)benzyl)carbamate] and `Cc1ncsc1-c1ccc(CNC(=O)[C@@H]2C[C@@H](O)CN2C(=O)[C@@H](NC(=O)COCCNC(=O)CCC(C)(C)C(=O)O[C@H]2C[C@@H](C)C=C3C=C[C@H](C)[C@H](CC[C@@H]4C[C@@H](O)CC(=O)O4)[C@H]32)C(C)(C)C)cc1` [Compound 8, (1S,3R,7S,8S,8aR)-8-(2-((2R,4R)-4-hydroxy-6-oxotetrahydro-2H-pyran-2-yl)ethyl)-3,7-dimethyl-1,2,3,7,8,8a-hexahydronaphthalen-1-yl 5-((2-(2-(((S)-1-((2S,4R)-4-hydroxy-2-((4-(4-methylthiazol-5-yl)benzyl)carbamoyl)pyrrolidin-1-yl)-3,3-dimethyl-1-oxobutan-2-yl)amino)-2-oxoethoxy)ethyl)amino)-2,2-dimethyl-5-oxopentanoate] cannot be ordered by DC50: < 50 nM for the first, < 50 nM for the second.

`Cc1ncsc1-c1ccc(CNC(=O)[C@@H]2C[C@@H](O)CN2C(=O)[C@@H](NC(=O)COCCOCCOCCOCCOCCNC(=O)O[C@H]2C[C@@H](C)C=C3C=C[C@H](C)[C@H](CC[C@@H]4C[C@@H](O)CC(=O)O4)[C@H]32)C(C)(C)C)cc1` [Compound 18, (1S,3R,7S,8S,8aR)-8-(2-((2R,4R)-4-hydroxy-6-oxotetrahydro-2H-pyran-2-yl)ethyl)-3,7-dimethyl-1,2,3,7,8,8a-hexahydronaphthalen-1-yl ((S)-19-((2S,4R)-4-hydroxy-2-((4-(4-methylthiazol-5-yl)benzyl)carbamoyl)pyrrolidine-1-carbonyl)-20,20-dimethyl-17-oxo-3,6,9,12,15-pentaoxa-18-azahenicosyl)carbamate] and `Cc1ncsc1-c1ccc(CNC(=O)[C@@H]2C[C@@H](O)CN2C(=O)[C@@H](NC(=O)COCCOCCOCCOCCOCCNC(=O)CCC(C)(C)C(=O)O[C@H]2C[C@@H](C)C=C3C=C[C@H](C)[C@H](CC[C@@H]4C[C@@H](O)CC(=O)O4)[C@H]32)C(C)(C)C)cc1` [Compound 12, (S)-(1S,3R,7S,8S,8aR)-8-(2-((2R,4R)-4-hydroxy-6-oxotetrahydro-2H-pyran-2-yl)ethyl)-3,7-dimethyl-1,2,3,7,8,8a-hexahydronaphthalen-1-yl 3-((2S,4R)-4-hydroxy-2-((4-(4-methylthiazol-5-yl)benzyl)carbamoyl)pyrrolidine-1-carbonyl)-2,2,26,26-tetramethyl-5,23-dioxo-7,10,13,16,19-pentaoxa-4,22-diazaheptacosan-27-oate] cannot be ordered by DC50: < 50 nM for the first, < 50 nM for the second.
